Measurements: PubChem BioAssay (NCI)
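Cells were grown in 96-well plates and exposed to each compound for 48 hours at five concentrations; endpoints were interpolated linearly between bracketing concentrations, or set to the highest concentration if not reached. TGI denotes the concentration required for complete inhibition of growth.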

Tests used:
Assay in all cases: NCI-60 cell line screen, 48 h
[1] = test system: BT-549 breast
[2] = test system: SK-OV-3 ovarian
[3] = test system: SNB-19 CNS
[4] = test system: U251 CNS
[5] = test system: NCI-H460 lung
[6] = test system: HCT-15 colon
[7] = test system: SN12C renal
[8] = test system: COLO 205 colon
[9] = test system: TK-10 renal
[10] = test system: RXF 393 renal
[11] = test system: K-562 leukemia
[12] = test system: A549 NSCLC
[13] = test system: KM12 colon
[14] = test system: SK-MEL-28 melanoma
[15] = test system: RPMI-8226 leukemia
[16] = test system: HT29 colon
[17] = test system: NCI-H23 lung
[18] = test system: UACC-257 melanoma
[19] = test system: CCRF-CEM leukemia
[20] = test system: SK-MEL-2 melanoma
[21] = test system: OVCAR-3 ovarian
[22] = test system: SR leukemia
[23] = test system: HS 578T breast
[24] = test system: SW-620 colon
[25] = test system: A498 renal
[26] = test system: M14 melanoma
[27] = test system: NCI/ADR-RES ovarian
[28] = test system: OVCAR-8 ovarian
[29] = test system: HCT-116 colon
[30] = test system: MDA-MB-231 breast
[31] = test system: MOLT-4 leukemia
[32] = test system: SF-295 CNS
[33] = test system: PC-3 prostate
[34] = test system: LOX IMVI melanoma
[35] = test system: 786-0 renal
[36] = test system: SNB-75 CNS
[37] = test system: HL-60(TB) leukemia
[38] = test system: SF-539 CNS
[39] = test system: UO-31 renal
[40] = test system: NCI-H226 lung
[41] = test system: IGROV1 ovarian
[42] = test system: CAKI-1 renal
[43] = test system: OVCAR-4 ovarian
[44] = test system: MDA-MB-435
[45] = test system: MDA-N
[46] = test system: DU-145 prostate
[47] = test system: MCF7 breast
[48] = test system: SF-268 CNS
[49] = test system: MALME-3M melanoma
[50] = test system: HOP-62 NSCLC
[51] = test system: SK-MEL-5 melanoma
[52] = test system: UACC-62 melanoma
[53] = test system: ACHN renal
[54] = test system: NCI-H522 lung
[55] = test system: HOP-92 NSCLC
[56] = test system: T-47D breast
[57] = test system: OVCAR-5 ovarian
[58] = test system: HCC-2998 colon
[59] = test system: EKVX NSCLC

For COC(=O)c1c(O)ccc2c1c1c(n2Cc2ccccc2)C(=O)c2ccccc2C1, the TGI [1] was over 100 µM, the TGI [2] was over 100 µM and the TGI [3] was over 100 µM. The TGI [4] was over 100 µM, the TGI [5] was over 100 µM and the TGI [6] was over 100 µM. It also gave a TGI [7] of 45.4 µM, a TGI [8] of 28.9 µM and a TGI [9] of over 100 µM. The TGI [10] was 60 µM, the TGI [11] was 46 µM and the TGI [12] was over 100 µM. It also gave a TGI [13] of over 100 µM, a TGI [14] of over 100 µM and a TGI [15] of 32.6 µM. It also gave a TGI [16] of 37.4 µM, a TGI [17] of over 100 µM and a TGI [18] of over 100 µM. It also gave a TGI [19] of 65.8 µM, a TGI [20] of over 100 µM and a TGI [21] of over 100 µM. For the same molecule, the TGI [22] was 37.5 µM, the TGI [23] was over 100 µM and the TGI [24] was over 100 µM. For the same molecule, the TGI [25] was over 100 µM, the TGI [26] was over 100 µM and the TGI [27] was 89.9 µM. For the same molecule, the TGI [28] was over 100 µM, the TGI [29] was over 100 µM and the TGI [30] was over 100 µM. The TGI [31] was 37.6 µM, the TGI [32] was over 100 µM and the TGI [33] was 60.5 µM. The TGI [34] was 69.5 µM, the TGI [35] was over 100 µM and the TGI [36] was 70.2 µM. For the same molecule, the TGI [37] was over 100 µM, the TGI [38] was over 100 µM and the TGI [39] was over 100 µM. It also gave a TGI [40] of over 100 µM, a TGI [41] of over 100 µM and a TGI [42] of 87.2 µM. For the same molecule, the TGI [43] was 70.4 µM, the TGI [44] was over 100 µM and the TGI [45] was over 100 µM. It also gave a TGI [46] of over 100 µM, a TGI [47] of over 100 µM and a TGI [48] of over 100 µM. It also gave a TGI [49] of over 100 µM, a TGI [50] of over 100 µM and a TGI [51] of over 100 µM. It also gave a TGI [52] of over 100 µM.
Molecule CC(C)(C)[Si](C)(C)OCC1OC(n2cnc3c(=O)[nH]c(N)nc32)C(O[Si](C)(C)C(C)(C)C)C1O[Si](C)(C)C(C)(C)C (centres undefined) has a TGI [2] of 4.45 µM, a TGI [3] of 6.14 µM and a TGI [4] of 3.71 µM. For the same molecule, the TGI [5] was 6.54 µM, the TGI [6] was over 100 µM and the TGI [7] was 5.02 µM. The TGI [8] was 3.2 µM, the TGI [9] was 5.97 µM and the TGI [10] was 4.69 µM. For the same molecule, the TGI [11] was 2.76 µM, the TGI [12] was 7.61 µM and the TGI [13] was 3.19 µM. It also gave a TGI [14] of 3.89 µM, a TGI [53] of 12.9 µM and a TGI [15] of 3.46 µM. For the same molecule, the TGI [16] was 4.16 µM, the TGI [17] was 2.9 µM and the TGI [18] was 9.4 µM. For the same molecule, the TGI [20] was 1.01 µM, the TGI [21] was 3.56 µM and the TGI [22] was 5.48 µM. It also gave a TGI [23] of 7.65 µM, a TGI [24] of over 20.4 µM and a TGI [25] of 6.21 µM. For the same molecule, the TGI [26] was 2.89 µM, the TGI [27] was over 100 µM and the TGI [28] was 11.3 µM. For the same molecule, the TGI [29] was 2.61 µM, the TGI [30] was 10.5 µM and the TGI [31] was 3.45 µM. It also gave a TGI [32] of 12 µM, a TGI [33] of 9.79 µM and a TGI [34] of over 19.7 µM. It also gave a TGI [35] of 4.88 µM, a TGI [36] of 9.57 µM and a TGI [37] of 2.34 µM. For the same molecule, the TGI [38] was 5.72 µM, the TGI [39] was 15.3 µM and the TGI [40] was 6.79 µM. For the same molecule, the TGI [54] was 3.61 µM, the TGI [41] was 3.91 µM and the TGI [42] was 52.9 µM. The TGI [43] was 3.65 µM, the TGI [44] was 2.88 µM and the TGI [45] was 3.3 µM. The TGI [46] was 12.2 µM, the TGI [55] was 7.37 µM and the TGI [47] was 3.9 µM. It also gave a TGI [56] of 5.14 µM, a TGI [57] of 5.79 µM and a TGI [48] of 7.16 µM. For the same molecule, the TGI [49] was 4.02 µM, the TGI [50] was 7.73 µM and the TGI [51] was 1.77 µM. The TGI [58] was 4.02 µM, the TGI [59] was over 46.6 µM and the TGI [52] was 4.3 µM.
